1 molecule from publication PMC5562805, “Overcoming the plasticity of plant specialized metabolism for selective diterpene production in yeast” (Scientific Reports, 2017) can be followed below.

For the assay, the target named is T1, CYP76AK6 (Salvia pomifera, UniProt A0A0S1TPC7).
T1 construct: expressed in S. cerevisiae (pESC-Trp) with CYP76AH24 variant and Populus trichocarpa CPR2
T1 sequence (A0A0S1TPC7 1-500): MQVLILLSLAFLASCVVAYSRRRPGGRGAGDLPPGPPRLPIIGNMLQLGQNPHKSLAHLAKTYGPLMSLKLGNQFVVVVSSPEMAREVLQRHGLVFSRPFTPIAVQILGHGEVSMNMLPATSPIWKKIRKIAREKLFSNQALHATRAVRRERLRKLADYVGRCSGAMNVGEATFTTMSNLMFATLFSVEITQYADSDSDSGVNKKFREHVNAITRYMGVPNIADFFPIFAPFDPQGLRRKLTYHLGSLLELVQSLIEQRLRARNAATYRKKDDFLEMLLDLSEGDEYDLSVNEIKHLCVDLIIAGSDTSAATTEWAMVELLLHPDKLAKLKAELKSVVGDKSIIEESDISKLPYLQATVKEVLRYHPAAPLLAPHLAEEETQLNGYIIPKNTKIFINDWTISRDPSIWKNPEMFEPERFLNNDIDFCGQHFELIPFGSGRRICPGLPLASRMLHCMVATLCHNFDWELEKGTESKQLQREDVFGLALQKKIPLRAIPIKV
Kind of assay: product titre in engineered yeast cells, GC. Particulars: C-20 oxidation to pisiferic acid; co-expressed CYP76AH24(F112L), CPR2, Cytb5. Type of assay: cell-based.

Regarding `CC(C)c1cc2c(cc1O)[C@@]1(C)CCCC(C)(C)[C@@H]1CC2` [ferruginol], the “product titre in engineered yeast cells, GC” value was “CYP76AH24(F112L) variant enabled the complete shift from carnosic acid to pisiferic acid production in yeast”.
